Experimental data from patent publication US12241084B2, “Methods for efficient generation of GABAergic interneurons from pluripotent stem cells” (The McLean Hospital Corporation, priority 2013, dated 2025).
“Also recorded” adds a separate entry of the source.

Columns and labels:
H9 cells [1] = experiment: MGE derivation from differentiating hPSCs (Nkx2.1 immunocytochemistry, cell counting, FACS); assay type: cell-based, human
differentiating ES cells = experiment: Real time PCR analysis of differentiating ES cells; assay type: cell-based, human
Protocol: Total RNA was prepared using Trizol (Invitrogen) and Purelink RNA mini kit (Invitrogen). cDNA from total RNA was generated using the SuperScript™ II RT (Invitrogen, Carlsbad, CA) and oligo (dT) primers. For quantitative analysis of the expression level of mRNAs, real-time PCR analyses were performed using the DNA engine Opticon™ (MJ Research, Waltham, MA) and SYBR green I (Molecular Probes, OR). Primers were designed using the MacVector software (Oxford Molecular Ltd.: primers sequences are available upon request). PCR were performed in 25 μl containing […] of each primer, 0.5×SYBR Green I (Molecular Probes), and 1 μl of cDNA. Fifty cycles consisting of 95° C. for 30 sec., 55° C. for 30 sec., 72° C. for 30 sec., and 79° C. for 5 sec. were performed. Primer dimers were melted at 79° C. before measuring the fluorescent signals after each cycle. The mRNA expression level for each gene was normalized against that of the GAPDH gene. The relative values were calculated by setting the normalized value of control as 1.

H9 cells [2] = experiment: MGE derivation from differentiating hPSCs (Nkx2.1 immunocytochemistry, cell counting, FACS); assay type: cell-based, human; settings: for MGE specification: treatment starting at day 0, flow cytometry; for Nkx2.2+/total cells: n=4
Protocol: Human PSC cells (H9 ESCs (WA09, WiCell, Madison, WI, passage 45-55), H7 ESC (WA07, WiCell, passage 41-51) and iPSC2497 (a kind gift from Dr. Fred Gage, [14], passage 30-40) were maintained on Matrigel (BD, San Hose, CA) in mTeSR media (Invitrogen, Calsbad, CA) with 10 ng/ml bFGF (Peprotech, Rocky Hill, NJ), and passaged using Dispase (Stem Cell Technologies, Vancouver, BC, Canada). For differentiation, PSCs were trypsinized and grown as floating aggregates in low adherent flasks in KSR media (20% knockout serum replacement, DMEM, 2 mM L-glutamine and 10 μM β-mercaptoethanol (all from Invitrogen)). Rock inhibitor (Y-27632, 10 μM, Tocris, Bristol, United Kingdom) was added on the first day of differentiation. After two weeks of floating culture, cells were transferred to polyornithine (PLO; […]; Sigma, St. Louis, MO) and fibronectin (FN; […]; Sigma, St. Louis, MO) coated surfaces. For neural induction, cells were treated with LDN193189 (100 nM, Stemgent, Cambridge, MA) from d0 to d14 and with SB431542 (10 μM, Tocris) from d0 to d7 [25]. For MGE induction, cells were treated with IWP2 (5 μM, EMD Millipore) from d0 to d7, with SAG (0.1 µM, EMD Millipore) from d0 to d21, and with FGF8 (100 ng/ml, Peprotech) from d8 to d21. After 3 weeks of differentiation, cells were trypsinized and droplets of 10,000 cells/μl transferred to PLO/FN-coated coverslips in differentiation media (N3 media with 10 ng/ml GDNF (Peprotech), 10 ng/ml BDNF (Peprotech) and 2.5 μM DAPT (Tocris)) for further differentiation and maturation.
Differentiated cells were trypsinized and fixed in Fix/Perm solution (BD) for 30 min., and incubated with blocking buffer (PBS with 0.1 mg/ml BSA and 0.1% Saponin (both from Sigma, St. Louis, MO)) for 10 minutes. Blocked cells were incubated with primary antibody (anti-Nkx2.1; Epitomics) in blocking buffer for 30 minutes. After washing with PBS, Alexa 647-conjugated secondary antibodies (Invitrogen) were added (1:1000) and incubated for another 15 minutes. Some samples were incubated only with secondary antibody as control. After washing with PBS, cells were suspended in blocking buffer and analyzed using a FACSAria (BD Biosciences, San Jose, CA). Flowjo (Tree Star, Ashland, Or) software was used to analyze raw data. Ten thousand cells were used per analysis.
For immunofluorescence staining, fixed cells or tissue sections were incubated with blocking buffer (PBS, 10% normal donkey serum (NDS)) containing 0.1% Triton for 10 minutes. Cells were then incubated overnight at 4° C. with primary antibodies diluted in PBS containing 2% NDS. The primary antibody list can be found in table 1. After rinsing with PBS, samples were incubated with fluorescent dye-labeled secondary antibodies (Alexa 488- Alexa 594- or Alexa 647-labeled IgG; Invitrogen, Carlsbad, CA) in PBS containing 2% NDS for 30 minutes at room temperature. After rinsing with PBS, Hoechst 33342 ([…]) was used for counterstaining, and coverslips/tissues sections were mounted onto slides in Mowiol 4-88 (Calbiochem, Gibbstown, NJ). Confocal analysis was performed using an Olympus DSU Spinning Disc Confocal on an IX81 inverted microscope (Center Valley, PA).
Cells were counted using the StereoInvestigator image capture equipment and software (Microbright Field, Williston, VT). For counting of cells on cover slips, an optical fractionator probe was used with a 500 μm×500 µm grid size and 100 μm×[…] counting frame (>40 counting sites with >1000 total cells counted per sample) at 40× magnification. Coverslips from 3-4 independent differentiations were used for analysis. For statistical analysis, we performed t-test (alpha=0.05) comparing control vs. sample using Prism6 software (Graph Pad).

[3] = tested on: voltage-gated Na+ channels; assay type: cell-based, human
[4] = tested on: AMPA/kainate-type glutamate receptors; experiment: NBQX inhibition of sEPSC in grafted cells; parameters: species or system human; settings: 10 μM NBQX
[5] = SHH activation during early differentiation

In the case of `CNC1CCC(N(Cc2cccc(-c3ccncc3)c2)C(=O)c2sc3ccccc3c2Cl)CC1` (stereo not drawn) [SAG], the MGE specification (H9 cells [1]; 10 nM SAG, H9 cells, 25 days of differentiation) is reported as “modest increase in MGE specification”, the “Nkx2.1 level / MGE derivation” value (H9 cells [1]; SAG treatment in the 3rd week of differentiation) is reported as “increased Nkx2.1 level mildly but significantly; also recorded: further enhanced MGE derivation” and the Gli1 expression (differentiating ES cells; [5]) is reported as “strong induction of Gli1”. The Gli3 expression (differentiating ES cells; [5]) was “strong Gli3 expression reduction”, the FGF15/19 expression (differentiating ES cells; early SHH activation) was “induced the expression of FGF15/19” and the “expression of isl1” value (H9 cells [2]; 10 nM vs 100 nM SAG) was “no significant difference”. For the same molecule, the “induction of the MGE phenotype” value (H9 cells [2]; 100 nM SAG, H9 cells, 25 days of differentiation) was “significantly higher induction of the MGE phenotype” and the MGE specification (H9 cells [2]) was 0.79%.

In the case of `Cc1ccc2nc(NC(=O)CSc3nc4c(c(=O)n3-c3ccccc3)SCC4)sc2c1` [IWP2], the MGE specification (H9 cells [2]) is reported as 5.16%.

With “FGF19: exogenously applied FGF19, caudalizing signal” the CGE identity (H9 cells [1]; FGF19 applied exogenously instead of FGF8, 3 weeks of differentiation) was “most of the cells taking up CGE identity; also recorded: induces CGE phenotype”, the FGF8 expression (differentiating ES cells; exogenous application of FGF19) was “no effect on FGF8 expression; also recorded: does not affect FGF8 expression” and the “Nkx2.2+/total cells” value (H9 cells [2]) was 4.19+0.77%.

`NC1=N[C@H](O)[C@H]2[C@H]3O[C@]4(O)O[C@@H]([C@@H](O)[C@@]2(N1)[C@@H]4O)[C@]3(O)CO` [tetrodotoxin] was tested, and the “block of transient (rapidly desensitizing) inward currents” value [3] was “completely blocked; also recorded: selectively blocked transient component”.

For `NS(=O)(=O)c1cccc2c1c([N+](=O)[O-])cc1nc(O)c(O)nc12` [NBQX], the “inhibition of spontaneous excitatory postsynaptic currents” value [4] was “inhibited sEPSC completely”.

B1: FGF8: fibroblast growth factor 8 protein (SEQ ID NO: 1), activator of FGF8 signaling (protein, listed as Homo sapiens)
chain: MAEDGDPFAKLIVETDTFGSRVRVRGAETGLYICMNKKGKLIAKSNGKGKDCVFTEIVLENNYTALQNAKYEGWYMAFTRKGRPRKGSKTRQHQREVHFMKRLPRGHHTTEQSLRFEFLNYPPFTRSLRGSQRTWAPEPR
B1 was tested, and the FGF19 expression (differentiating ES cells; exogenous application of FGF8) was “increase FGF19 expression mildly but significantly; also recorded: increases FGF19 expression”, the “MGE cells by FACS” value (H9 cells [2]; early SHH activation with exogenous FGF8, multiple hPSCs) was > 80% and the “Nkx2.2+/total cells” value (H9 cells [2]) was 0.61+0.38%. For the same molecule, the “MGE differentiation vs CGE differentiation” value (H9 cells [2]; treatment in the 2nd and/or 3rd week of differentiation) was “significantly increased MGE differentiation at the expense of CGE differentiation; also recorded: further induced MGE phenotype at the expense of the CGE phenotype; also recorded: induces MGE phenotype”.
